Results from patent US20060216761A1, “Isolation material for hormone disrupting substance, method of concentrating and method of clean-up” (priority 2002, published 2006).

Legend:
[1] = tested on: purified anti-resin component antibody; assay: Cross reactivity of purified anti-resin component antibody; type: binding, rabbit; details: assuming BPA=100%
Protocol: Also, even in the BPA-2-KLH-immunized rabbits, sixth immunization (immunization number 6) led to an equilibrium of antibody titer, and 178 mg of purified anti-resin component antibody was obtained from one rabbit. When assuming BPA=100% for this purified antibody, cross reactivity was as shown in Table 12; as specificity for BPA was high, it was proven that BPA only can be specifically concentrated or cleaned up.

[2] = tested on: purified anti-resin plasticizer antibody; assay: Cross reactivity of purified anti-resin plasticizer antibody; type: binding, rabbit; details: assuming DBP=100%
[3] = tested on: purified anti-estrogen polyclonal antibody; assay: Cross reactivity of purified anti-estrogen polyclonal antibody; type: binding, rabbit; details: assuming E2=100%
Protocol: In the E3-16G-KLH-immunized rabbits, third immunization (immunization number 3) led to an equilibrium of antibody titer, and 168 mg of purified anti-estrogen polyclonal antibody was obtained from one rabbit.

[4] = Resistance of monoclonal antibody to a detergent; design: species or system mouse; details: compared with antibody from EE2-277 line

CC(CCC(=O)O)(c1ccc(O)cc1)c1ccc(O)cc1 [4,4′-Bis(p-hydroxyphenyl)pentanoic acid]
Cross reactivity [1]: <0.4%

O=C(c1ccc(O)cc1)c1ccc(O)cc1 [p,p′-Dihydroxybenzophenone]
Cross reactivity [1]: <0.4%

CC(c1ccc(O)cc1)c1ccc(O)cc1 [Bisphenol E (BPE), Bisphenol E]
Cross reactivity [1]: 6.6%

CC(C)CCCCCCOC(=O)c1ccccc1C(=O)OCCCCCCC(C)C [Diisononyl phthalate]
Cross reactivity [2]: <1%

Nonylphenol ethoxylate [Nonylphenol ethoxylate (NP10EO)]
Cross reactivity [3]: <0.02%

C[C@]12CC[C@@H]3c4ccc(O)cc4CC[C@H]3[C@@H]1CC[C@@H]2O [17β-Estradiol (E2), 17β-Estradiol]
Cross reactivity [3]: 100%

C=C(C)C(=O)Oc1ccc(C(C)(C)c2ccc(OC(=O)C(=C)C)cc2)cc1 [BPA dimethacrylate]
Cross reactivity [1]: 2.7%

O=S(=O)(c1ccc(OCCO)cc1)c1ccc(OCCO)cc1 [Bis[4-(2-hydroxyethoxy)phenyl]sulfone]
Cross reactivity [1]: <0.4%

CC(O)(Cc1ccc(O)cc1)c1ccc(O)cc1 (stereo not drawn) [1,2-Bis(4-hydroxyphenyl)-2-propanol]
Cross reactivity [1]: <0.4%

CCC(C)(c1ccc(O)cc1)c1ccc(O)cc1 [Bisphenol B (BPB), Bisphenol B]
Cross reactivity [1]: 22.5%

Oc1ccc(Cc2ccc(O)cc2)cc1 [Bis(p-hydroxyphenyl)methane]
Cross reactivity [1]: 1.0%

CCCCCOC(=O)c1ccccc1C(=O)OCCCCC [Dipentyl phthalate]
Cross reactivity [2]: 10%

CCCCC(CC)COC(=O)c1ccccc1C(=O)OCC(CC)CCCC (stereo not drawn) [Diethylhexyl phthalate (DEHP), Diethylhexyl phthalate]
Cross reactivity [3]: <0.02% | Cross reactivity [2]: <1%

CC(=O)Oc1ccc(C(C)(C)c2ccc(OC(C)=O)cc2)cc1 [BPA diacetate]
Cross reactivity [1]: 11.1%

C[C@]12CC[C@@H]3c4ccc(O)cc4CC[C@H]3[C@@H]1C[C@@H](O)[C@@H]2O [Estriol (E3), Estriol]
Cross reactivity [3]: 69%

CC(C)(c1ccc(OCC2CO2)cc1)c1ccc(OCC2CO2)cc1 (stereo not drawn) [BPA diglycidyl ether]
Cross reactivity [1]: <0.4%

CC(C)(c1ccc(O)cc1)c1ccc(O)cc1 [Bisphenol A (BPA), Bisphenol A]
Cross reactivity [3]: <0.02% | Cross reactivity [1]: 100%

CCCCOC(=O)c1ccccc1C(=O)OCCCC [Dibutyl phthalate]
Cross reactivity [2]: 100%

Oc1ccc(Cl)cc1Cl [2,4-Dichlorophenol (2,4DCP), 2,4-Dichlorophenol]
Cross reactivity [3]: <0.02%

CCCOC(=O)c1ccccc1C(=O)OCCC [Dipropyl phthalate]
Cross reactivity [2]: 27%

CCCCCCOC(=O)c1ccccc1C(=O)OCCCCCC [Dihexyl phthalate]
Cross reactivity [2]: 4%

O=C(OC1CCCCC1)c1ccccc1C(=O)OC1CCCCC1 [Dicyclohexyl phthalate]
Cross reactivity [2]: <1%

CC(CO)(c1ccc(O)cc1)c1ccc(O)cc1 [2,2′-Bis(4-hydroxyphenyl)-1-propanol]
Cross reactivity [1]: 9.3%

C#C[C@]1(O)CC[C@H]2[C@@H]3CCc4cc(O)ccc4[C@H]3CC[C@@]21C [Ethynylestradiol (EE2), Ethynylestradiol]
Cross reactivity [3]: 7%

Oc1ccc(Oc2ccc(O)cc2)cc1 [4,4′-Dihydroxydiphenyl ether]
Cross reactivity [1]: <0.4%

CCOC(=O)c1ccccc1C(=O)OCC [Diethyl phthalate]
Cross reactivity [2]: 7%

CCCCC(CC)COC(=O)CCCCC(=O)OCC(CC)CCCC (stereo not drawn) [Diethylhexyl adipate]
Cross reactivity [2]: <1%

O=S(=O)(c1ccc(O)cc1)c1ccc(O)cc1 [Bisphenol S (BPS), Bisphenol S]
Cross reactivity [1]: <0.4%

t-Nonylphenol [t-Nonylphenol (NP)]
Cross reactivity [3]: <0.02%

B1: EE2-8-18: anti-ethynyl estradiol monoclonal antibody from mouse hybridoma EE2-8-18 line (antibody, V domains shown)
VH: VQVKESGPGLVAPSQSLSISCTVSGFPLTSYGVQWVRQPPGKGLEWLGVIWPGGSTNYNSALMSRLSISKDNSKSQVFLKMNSLQTDDTAMYYCAGWFQTGPRLFAYWGQGTLVTVSA
VL: DIQMTQSPASLSASVGETVTITCRASENIHSYLAWYQQKQGKSPQVLVYNAKTLGEGVSSRFSGSGSGTQFSLKINSLQPEDFGTYYCQNHYGSPWTFGGGTKLESK
modifications: Mouse
notes: anti-ethynyl estradiol monoclonal antibody from mouse hybridoma EE2-8-18 line
resistance to a detergent of the antibody [4]: slightly lower than that of one from EE2-277 line

B2: EE2-3: anti-ethynyl estradiol monoclonal antibody from mouse hybridoma EE2-3 line (antibody)
VH: VTLKXSGPGILQPSQTLSLTCSFSGFSLSTSDLGVSWIRQTSGKGLEWLAHIYWNDDKYYNPSLKSRLTISKDTSGNLVFLRITSVDTDDSATYYCARSPLYGSLTYWGQGTLVTVSA
light: DIVMSQSPSSLAVSVGEKVTLNCKSSQSLLNSRTRKNYLAWYQQKPGQSPKLLISWASTRESGVPDRFTGSGSGTDFTLTISSVQAEDLAVYYCNQFYYLLTFGAGTKLELKRADAAPTVSIFPPSSEQLTSGGASVVCFLNNFYPKDINVKWKIDGSERQNGVLNSWTDQDSKDSTYSMSSTLTLTKDEYERHNSYTCEATHKTSTSPIVKSFNRNE
modifications: Mouse; (5)..(5) Xaa = unknown for each location where they appear
notes: anti-ethynyl estradiol monoclonal antibody from mouse hybridoma EE2-3 line
resistance to a detergent of the antibody [4]: the same as that of one from EE2-277 line
